Experiments:
[1] = target: T1, lipase preparation Lipex 100 L produced by Novozymes (Thermomyces lanuginosus, UniProt O59952, N255R/T253R); assay: LIPASE-induced fragrance emission test (Lipex 100 L); format: biochemical; conditions: GC/MS head space peak area of released compound minus water control; 10 mg compound in 1 g aqueous 1% Lipex 100L; released: menthone (1-1), hexenal (1-2), citral (1-3)
T1 construct: purchased Novozymes Lipex 100 L
Method: (§1) 10 mg of each of the compounds of Examples 1-1 to 1-3 and 1 g of an aqueous 1% lipase preparation solution were charged in a vial bottle and mixed and after hermetically sealing the bottle, the mixture was subjected to GC/MS analysis of the head space component to obtain a peak area of the fragrance emitting compound. As a control, water was used in place of the aqueous 1% lipase preparation solution, and the peak area of the control was obtained by the same method.
(§2) The fragrance emission amount was determined from the difference between the peak area of the obtained fragrance emitting compound and the peak area of the control. As the lipase preparation, Lipex 100 L produced by Novozymes, and AY “Amano” 30SD produced by Amano Enzyme Inc. were used.
(§3) • Measuring apparatus: 7890GC/5975MSD (manufactured by Agilent Technologies) • Column: BC-WAX 50 m×0.25 mm I.D. • Temperature rise: 70° C.→220° C., 4° C./min • Split ratio: 60:1

[2] = tested on: lipase preparation AY "Amano" 30SD produced by Amano Enzyme Inc.; assay: LIPASE-induced fragrance emission test (AY "Amano" 30SD); format: biochemical; conditions: GC/MS head space peak area of released citral minus water control; 10 mg compound in 1 g aqueous 1% AY "Amano" 30SD
Method: as §1, §2, §3

[3] = tested on: Staphylococcus aureus strain NBRC12732; assay: Deodorizing component emission test by microorganism; format: cell-based; conditions: GC/MS head space peak area minus control; 10 mg compound in 3 mL culture solution, 30° C. 20 hours; released: citronellal (2-3), 2,6-dimethyl-5-heptenal (2-4), trimethylhexanal (2-5), octanal (2-6)
Method: (§4) Culture of Staphylococcus aureus strain NBRC12732, Staphylococcus epidermidis strain JCM2414T, Corynebacterium xerosis strain JCM1324, Pseudomonas aeruginosa strain NBRC13275, Bacillus subtilis strain NBRC3134, and Moraxella osloensis strain ATCC19976:
(§5) After inoculating each of bacteria in Muller-Hinton liquid medium, shaking culture was performed at 30° C. for 20 hours. 3 mL of the resulting preculture solution was transferred to a vial bottle, and 10 mg of each of the compounds of Examples 2-2 to 2-6 was mixed, followed by hermetically sealing the bottle. Thereafter, shaking culture was further performed at 30° C. for 20 hours.
(§6) A peak area of the deodorizing compound was obtained by performing GC/MS analysis of the head space component contained in the vial bottle having 3 mL of microorganism culture solution in which 10 mg of each of the compound of Examples 2-2 to 2-6 was mixed. A microorganism culture solution having not mixed therein each of the compounds of Examples 2-2 to 2-6 was used as the control, and a peak area of the control was obtained by the same method as above.
(§7) The difference between the peak area of the deodorizing compound and the peak area of the control was calculated as the deodorizing component emission amount, and the results are shown in Tables 10 to 12.
(§8) • Measuring apparatus: 7890GC/5975MSD (manufactured by Agilent Technologies) • Column: BC-WAX 50 m×0.25 mm I.D. • Temperature rise: 70° C.→220° C., 4° C./min • Split ratio: splitless

[4] = tested on: Malassezia furfur strain NBRC0656; assay: as above; format: cell-based; conditions: GC/MS head space peak area of trimethylhexanal minus control; 10 mg in 3 mL culture solution, static culture 28° C. 3 days
Method: (§9) After inoculating bacteria in Sabouraud liquid medium containing 0.1% Tween 80, static culture was performed at 28° C. for 3 days under anaerobic conditions. 3 mL of the resulting preculture solution was transferred to a vial bottle, and 10 mg of each of the compounds of Examples 2-2 to 2-6 was mixed, followed by hermetically sealing the bottle. Thereafter, static culture was further performed at 28° C. for 3 days.
as §6, §7, §8

[5] = tested on: Bacillus subtilis strain NBRC3134; assay: as above; format: cell-based; conditions: GC/MS head space peak area minus control; 10 mg in 3 mL culture solution, 30° C. 20 hours; released: hexenal (2-2), citronellal (2-3)
Method: as §4, §5, §6, §7, §8

[6] = tested on: Corynebacterium xerosis strain JCM1324; assay: as above; format: cell-based; conditions: GC/MS head space peak area minus control; 10 mg in 3 mL culture solution, 30° C. 20 hours; released: hexenal (2-2), citronellal (2-3)
Method: as §4, §5, §6, §7, §8

[7] = tested on: Moraxella osloensis strain ATCC19976; assay: as above; format: cell-based; conditions: GC/MS head space peak area minus control; 10 mg in 3 mL culture solution, 30° C. 20 hours; released: hexenal (2-2), citronellal (2-3)
Method: as §4, §5, §6, §7, §8

[8] = tested on: Pseudomonas aeruginosa strain NBRC13275; assay: as above; format: cell-based; conditions: GC/MS head space peak area minus control; 10 mg in 3 mL culture solution, 30° C. 20 hours; released: hexenal (2-2), citronellal (2-3)
Method: as §4, §5, §6, §7, §8

[9] = tested on: Staphylococcus epidermidis strain JCM2414T; assay: as above; format: cell-based; conditions: GC/MS head space peak area minus control; 10 mg in 3 mL culture solution, 30° C. 20 hours; released: hexenal (2-2), citronellal (2-3)
Method: as §4, §5, §6, §7, §8

[10] = tested on: Propionibacterium acnes strain JCM6473; assay: as above; format: cell-based; conditions: GC/MS head space peak area minus control; 10 mg in 3 mL culture solution, static culture 28° C. 3 days; released: hexenal (2-2), citronellal (2-3)
Method: as §9, with “GAM bouillon” for “Sabouraud”, “Hemin 0.5 ppm and Menadione 0.5 ppm,” for “0.1% Tween 80,”
as §6, §7, §8

T1 sequence (O59952 23-291 T253R/N255R): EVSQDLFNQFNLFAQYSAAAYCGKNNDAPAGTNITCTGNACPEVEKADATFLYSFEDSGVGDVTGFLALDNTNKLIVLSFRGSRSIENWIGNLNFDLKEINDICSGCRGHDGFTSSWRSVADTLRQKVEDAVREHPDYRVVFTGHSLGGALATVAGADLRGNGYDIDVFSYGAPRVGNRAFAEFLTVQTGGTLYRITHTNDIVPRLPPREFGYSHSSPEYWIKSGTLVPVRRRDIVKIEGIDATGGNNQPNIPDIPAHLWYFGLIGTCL

SMILES: CC(C)=CCC=C(C)C=COC(=O)c1ccccc1 [Example 1-3, 3,7-dimethylocta-1,3,6-trienyl Benzoate]
- Fragrance emission amount [1]: 5,098,870
- Fragrance emission amount [2]: 16,031,669

SMILES: CC(C)=CCCC(C)=COC(=O)c1ccccc1 [Example 2-4, 2,6-dimethylhepta-1,5-dienyl Benzoate]
- Deodorizing component emission amount [3]: 132,554,000

SMILES: CC(C=COC(=O)c1ccccc1)CC(C)(C)C (stereo not drawn) [Example 2-5, 3,5,5-trimethyl-1-hexenyl Benzoate]
- Deodorizing component emission amount [3]: 189,916,125
- Deodorizing component emission amount [4]: 19,153,037

SMILES: CCCCCCC=COC(=O)c1ccccc1 [Example 2-6, 1-octenyl Benzoate]
- Deodorizing component emission amount [3]: 129,928,279

SMILES: CCC=CC=COC(=O)c1ccccc1 [Example 1-2, 1,3-hexadienyl Benzoate]
- Fragrance emission amount [1]: 12,076,381
- Deodorizing component emission amount [5]: 106,596,512
- Deodorizing component emission amount [6]: 15,168,728
- Deodorizing component emission amount [7]: 8,864,491
- Deodorizing component emission amount [8]: 10,638,380
- Deodorizing component emission amount [9]: 17,179,106
- Deodorizing component emission amount [10]: 3,265,759

SMILES: CC(C)C1=C(OC(=O)c2ccccc2)C[C@H](C)CC1 [Example 1-1, 2-isopropyl-5-methyl-1-cyclohexenyl Benzoate]
- Fragrance emission amount [1]: 76,407,359

SMILES: CC(C)=CCCC(C)C=COC(=O)c1ccccc1 (stereo not drawn) [Example 2-3, 3,7-dimethylocta-1,6-dienyl Benzoate]
- Deodorizing component emission amount [5]: 66,939,425
- Deodorizing component emission amount [6]: 692,091,257
- Deodorizing component emission amount [7]: 25,608,586
- Deodorizing component emission amount [8]: 42,891,551
- Deodorizing component emission amount [3]: 1,064,240,572
- Deodorizing component emission amount [9]: 76,886,509
- Deodorizing component emission amount [10]: 15,450,553

From US12319891B2, “Method for releasing aldehyde or ketone” (TAKASAGO INTERNATIONAL CORPORATION, priority 2017, dated 2025)
